The source of these data is the supplement of paper PMC11208160.
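Further: IS621 bridge recombinase in Escherichia coli cells against a fixed T5 target plasmid.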

A short description of this data set: recombinant UMI read abundance after kanamycin selection (control-corrected) (log10(CPM+1)); higher = more efficient recombination; extreme values may be limits of the assay; sequences stand for … in AGTGCAGAGAAAATCGGCCAGTTTTCTCTGCCTGCAGTCCGCATGCCGTGGGACCCCTTGGGTTCTAACCTGTTGCCTAGATTTATGCAGCGGACTGCCTTTCTCCCAAAGTGATAAACCGG…AGGTTGGTTTCACT; site = the 11-nt donor. An outline of the steps:
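For the IS621 bridge recombinase, a pooled Escherichia coli screen tested donor and donor-binding-loop pairs. Cells received the pair library together with a target plasmid encoding a fixed target and T7-inducible recombinase, then went onto IPTG (0.07 mM) plus kanamycin or unselected plates in duplicate. After PCR across the donor–target junction and sequencing, recombinant UMI counts were normalized to CPM, averaged, and scaled by control-derived factors. Each value is given as log10(CPM+1).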
Regarding “CAGCCTTCATGGACCGGTTTTCCCGGTAATCCGTATTTGGT (site AAGCCTTCTAC)”, the “recombinant UMI read abundance (log10)” value was 0.

As for “CAGCCTTCATGGACCGGTTTTCCCGGTAATCCGTATTTGGT (site CAGCCTTCTAC)”, the “recombinant UMI read abundance (log10)” value is 0.949.

Take “CAGCCTTCATGGACCGGTTTTCCCGGTAATCCGTATTTGGT (site GAGCCTTCTAC)”: the “recombinant UMI read abundance (log10)” value amounted to 0.00376.

“CAGCCTTCATGGACCGGTTTTCCCGGTAATCCGTATTTGGT (site TAGCCTTCTAC)”: the “recombinant UMI read abundance (log10)” value was determined as 0.0206.

Turning to “CAGCCTTCATGGACCGGTTTTCCCGGTAATCCGTATTTGTG (site CAGCCTTCTCA)”, the “recombinant UMI read abundance (log10)” value is 0.108.

Consider “CAGCGTGCATGGACCGGTTTTCCCGGTAATCCGTATTTGCT (site CAGCGTGCTAG)”, for which the “recombinant UMI read abundance (log10)” value amounted to 2.76.

For “CAGCTAGCATGGACCGGTTTTCCCGGTAATCCGTATTTGAA (site AAGCTAGCTTT)”, the “recombinant UMI read abundance (log10)” value stood at 0.0151.

On to “CAGCTAGCATGGACCGGTTTTCCCGGTAATCCGTATTTGAA (site CAGCTAGCTTT)”, for which the “recombinant UMI read abundance (log10)” value was found to be 2.54.

As to “CAGCTAGCATGGACCGGTTTTCCCGGTAATCCGTATTTGAA (site GAGCTAGCTTT)”, the “recombinant UMI read abundance (log10)” value turned out to be 0.0499.

As for “CAGCTAGCATGGACCGGTTTTCCCGGTAATCCGTATTTGAA (site TAGCTAGCTTT)”, the “recombinant UMI read abundance (log10)” value was 0.596.

On to “CAGGCAACATGGACCGGTTTTCCCGGTAATCCGTATTTGTG (site CAGGCAACTCA)”, for which the “recombinant UMI read abundance (log10)” value amounted to 0.912.

With “CAGGCGCCATGGACCGGTTTTCCCGGTAATCCGTATTTGTG (site CAAGCGCCTCA)”, the “recombinant UMI read abundance (log10)” value amounted to 0.0213.

Consider “CAGGCGCCATGGACCGGTTTTCCCGGTAATCCGTATTTGTG (site CACGCGCCTCA)”, for which the “recombinant UMI read abundance (log10)” value was found to be 0.

“CAGGCGCCATGGACCGGTTTTCCCGGTAATCCGTATTTGTG (site CAGGCGCCTCA)”: the “recombinant UMI read abundance (log10)” value came to 0.428.

For the sequence “CAGGCGCCATGGACCGGTTTTCCCGGTAATCCGTATTTGTG (site CATGCGCCTCA)”, the “recombinant UMI read abundance (log10)” value turned out to be 0.0319.

Regarding “CAGGGCCCATGGACCGGTTTTCCCGGTAATCCGTATTTGCA (site CAGGGCCCTTG)”, the “recombinant UMI read abundance (log10)” value stood at 1.24.

Take “CAGGGCCCATGGACCGGTTTTCCCGGTAATCCGTATTTGTT (site CAAGGCCCTAA)”: the “recombinant UMI read abundance (log10)” value was determined as 0.

Consider “CAGGGCCCATGGACCGGTTTTCCCGGTAATCCGTATTTGTT (site CACGGCCCTAA)”, for which the “recombinant UMI read abundance (log10)” value was 0.025.

For “CAGGGCCCATGGACCGGTTTTCCCGGTAATCCGTATTTGTT (site CAGGGCCCTAA)”, the “recombinant UMI read abundance (log10)” value amounted to 0.381.

Regarding “CAGGGCCCATGGACCGGTTTTCCCGGTAATCCGTATTTGTT (site CATGGCCCTAA)”, the “recombinant UMI read abundance (log10)” value was 0.00426.

“CAGGGCTCATGGACCGGTTTTCCCGGTAATCCGTATTTGTT (site CAGGGCTCTAA)”: the “recombinant UMI read abundance (log10)” value worked out at 2.71.

For the sequence “CAGGTTCCATGGACCGGTTTTCCCGGTAATCCGTATTTGAA (site CAGGTTCCTTT)”, the “recombinant UMI read abundance (log10)” value stood at 1.98.

With “CAGGTTGCATGGACCGGTTTTCCCGGTAATCCGTATTTGGC (site CAGGTTGCTGC)”, the “recombinant UMI read abundance (log10)” value was 2.08.

With “CAGTAAGCATGGACCGGTTTTCCCGGTAATCCGTATTTGTG (site CAGTAAGCTCA)”, the “recombinant UMI read abundance (log10)” value came out at 2.41.

Take “CAGTCCACATGGACCGGTTTTCCCGGTAATCCGTATTTGGG (site CAGTCAACTCC)”: the “recombinant UMI read abundance (log10)” value worked out at 0.00382.

For the sequence “CAGTCCACATGGACCGGTTTTCCCGGTAATCCGTATTTGGG (site CAGTCCACTCC)”, the “recombinant UMI read abundance (log10)” value came to 0.00714.

Regarding “CAGTCCACATGGACCGGTTTTCCCGGTAATCCGTATTTGGG (site CAGTCGACTCC)”, the “recombinant UMI read abundance (log10)” value was determined as 0.024.

Turning to “CAGTCCACATGGACCGGTTTTCCCGGTAATCCGTATTTGGG (site CAGTCTACTCC)”, the “recombinant UMI read abundance (log10)” value was found to be 0.

Consider “CAGTCCGCATGGACCGGTTTTCCCGGTAATCCGTATTTGCT (site CAGTCCGCTAG)”, for which the “recombinant UMI read abundance (log10)” value stood at 2.64.

In the case of “CAGTCCTCATGGACCGGTTTTCCCGGTAATCCGTATTTGCC (site CAATCCTCTGG)”, the “recombinant UMI read abundance (log10)” value worked out at 2.78.

Turning to “CAGTCCTCATGGACCGGTTTTCCCGGTAATCCGTATTTGCC (site CACTCCTCTGG)”, the “recombinant UMI read abundance (log10)” value amounted to 2.05.

“CAGTCCTCATGGACCGGTTTTCCCGGTAATCCGTATTTGCC (site CAGTCCTCTGG)”: the “recombinant UMI read abundance (log10)” value was 2.38.

With “CAGTCCTCATGGACCGGTTTTCCCGGTAATCCGTATTTGCC (site CATTCCTCTGG)”, the “recombinant UMI read abundance (log10)” value turned out to be 0.879.

Turning to “CAGTCGACATGGACCGGTTTTCCCGGTAATCCGTATTTGTG (site CAGTCGACTCA)”, the “recombinant UMI read abundance (log10)” value stood at 0.661.

“CAGTCGACATGGACCGGTTTTCCCGGTAATCCGTATTTGTG (site CAGTCGACTCC)”: the “recombinant UMI read abundance (log10)” value was determined as 0.022.

For “CAGTCGACATGGACCGGTTTTCCCGGTAATCCGTATTTGTG (site CAGTCGACTCG)”, the “recombinant UMI read abundance (log10)” value worked out at 0.00379.

Take “CAGTCGACATGGACCGGTTTTCCCGGTAATCCGTATTTGTG (site CAGTCGACTCT)”: the “recombinant UMI read abundance (log10)” value came out at 0.00896.

In the case of “CAGTCGTCATGGACCGGTTTTCCCGGTAATCCGTATTTGGG (site CAGTCGACTCC)”, the “recombinant UMI read abundance (log10)” value was determined as 0.00913.

Consider “CAGTCGTCATGGACCGGTTTTCCCGGTAATCCGTATTTGGG (site CAGTCGCCTCC)”, for which the “recombinant UMI read abundance (log10)” value was determined as 0.0207.

As to “CAGTCGTCATGGACCGGTTTTCCCGGTAATCCGTATTTGGG (site CAGTCGGCTCC)”, the “recombinant UMI read abundance (log10)” value was 0.0122.

Turning to “CAGTCGTCATGGACCGGTTTTCCCGGTAATCCGTATTTGGG (site CAGTCGTCTCC)”, the “recombinant UMI read abundance (log10)” value came to 0.348.

Regarding “CAGTGCTCATGGACCGGTTTTCCCGGTAATCCGTATTTGAA (site CAATGCTCTTT)”, the “recombinant UMI read abundance (log10)” value came out at 1.35.

Consider “CAGTGCTCATGGACCGGTTTTCCCGGTAATCCGTATTTGAA (site CACTGCTCTTT)”, for which the “recombinant UMI read abundance (log10)” value worked out at 0.28.

As to “CAGTGCTCATGGACCGGTTTTCCCGGTAATCCGTATTTGAA (site CAGTGCTCTTT)”, the “recombinant UMI read abundance (log10)” value is 2.48.

Turning to “CAGTGCTCATGGACCGGTTTTCCCGGTAATCCGTATTTGAA (site CATTGCTCTTT)”, the “recombinant UMI read abundance (log10)” value was determined as 0.0098.

In the case of “CAGTGGACATGGACCGGTTTTCCCGGTAATCCGTATTTGGG (site CAGTAGACTCC)”, the “recombinant UMI read abundance (log10)” value was 0.368.

For the sequence “CAGTGGACATGGACCGGTTTTCCCGGTAATCCGTATTTGGG (site CAGTCGACTCC)”, the “recombinant UMI read abundance (log10)” value amounted to 0.0117.

As for “CAGTGGACATGGACCGGTTTTCCCGGTAATCCGTATTTGGG (site CAGTGGACTCC)”, the “recombinant UMI read abundance (log10)” value was determined as 0.0835.

Consider “CAGTGGACATGGACCGGTTTTCCCGGTAATCCGTATTTGGG (site CAGTTGACTCC)”, for which the “recombinant UMI read abundance (log10)” value amounted to 0.0125.

As to “CAGTTAGCATGGACCGGTTTTCCCGGTAATCCGTATTTGTG (site CAGTTAGCTCA)”, the “recombinant UMI read abundance (log10)” value was found to be 2.09.

With “CAGTTAGCATGGACCGGTTTTCCCGGTAATCCGTATTTGTG (site CCGTTAGCTCA)”, the “recombinant UMI read abundance (log10)” value was 0.0219.

Regarding “CAGTTAGCATGGACCGGTTTTCCCGGTAATCCGTATTTGTG (site CGGTTAGCTCA)”, the “recombinant UMI read abundance (log10)” value came to 0.347.

“CAGTTAGCATGGACCGGTTTTCCCGGTAATCCGTATTTGTG (site CTGTTAGCTCA)”: the “recombinant UMI read abundance (log10)” value was 0.364.

Turning to “CAGTTCCCATGGACCGGTTTTCCCGGTAATCCGTATTTGCT (site CAATTCCCTAG)”, the “recombinant UMI read abundance (log10)” value turned out to be 0.806.

Take “CAGTTCCCATGGACCGGTTTTCCCGGTAATCCGTATTTGCT (site CACTTCCCTAG)”: the “recombinant UMI read abundance (log10)” value stood at 0.644.

As for “CAGTTCCCATGGACCGGTTTTCCCGGTAATCCGTATTTGCT (site CAGTTCCCTAG)”, the “recombinant UMI read abundance (log10)” value amounted to 0.863.

Regarding “CAGTTCCCATGGACCGGTTTTCCCGGTAATCCGTATTTGCT (site CATTTCCCTAG)”, the “recombinant UMI read abundance (log10)” value is 0.433.

On to “CAGTTGGCATGGACCGGTTTTCCCGGTAATCCGTATTTGGA (site CAATTGGCTTC)”, for which the “recombinant UMI read abundance (log10)” value was determined as 0.882.

Turning to “CAGTTGGCATGGACCGGTTTTCCCGGTAATCCGTATTTGGA (site CACTTGGCTTC)”, the “recombinant UMI read abundance (log10)” value turned out to be 0.076.

“CAGTTGGCATGGACCGGTTTTCCCGGTAATCCGTATTTGGA (site CAGTTGGCTTC)”: the “recombinant UMI read abundance (log10)” value was determined as 1.72.

Take “CAGTTGGCATGGACCGGTTTTCCCGGTAATCCGTATTTGGA (site CATTTGGCTTC)”: the “recombinant UMI read abundance (log10)” value came out at 0.00616.

Take “CATAATACATGGACCGGTTTTCCCGGTAATCCGTATTTGGC (site CATAATACTGC)”: the “recombinant UMI read abundance (log10)” value amounted to 1.88.

For “CATAATACATGGACCGGTTTTCCCGGTAATCCGTATTTGGC (site CCTAATACTGC)”, the “recombinant UMI read abundance (log10)” value came out at 0.

Take “CATAATACATGGACCGGTTTTCCCGGTAATCCGTATTTGGC (site CGTAATACTGC)”: the “recombinant UMI read abundance (log10)” value turned out to be 0.

As to “CATAATACATGGACCGGTTTTCCCGGTAATCCGTATTTGGC (site CTTAATACTGC)”, the “recombinant UMI read abundance (log10)” value turned out to be 0.

Consider “CATAGCCCATGGACCGGTTTTCCCGGTAATCCGTATTTGAG (site CATAGCCCTCT)”, for which the “recombinant UMI read abundance (log10)” value was found to be 0.0141.

Regarding “CATATTGCATGGACCGGTTTTCCCGGTAATCCGTATTTGCA (site CATATTGCTTG)”, the “recombinant UMI read abundance (log10)” value amounted to 0.

As for “CATATTGCATGGACCGGTTTTCCCGGTAATCCGTATTTGTT (site CATATTGCTAA)”, the “recombinant UMI read abundance (log10)” value came out at 1.21.
